Measurements from ChEMBL document CHEMBL1201862, “PubChem BioAssay data set” (2004).
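Five compound concentrations were applied to cells in 96-well plates for 48 hours; endpoints were derived by simple linear interpolation of the resulting dose-response curve. GI50: concentration for 50% inhibition of growth.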 Activity calls are given as the source filed them. No stated cut-off is given here; in the data, active = GI50 up to about 1.1 µM and inactive = higher.

Assays:
Assay in all cases: growth of human tumour cells (NCI), 48 h
MDA-N = test system: MDA-N
SF-268 = test system: SF-268
OVCAR-3 = test system: OVCAR-3
HCC 2998 = test system: HCC 2998
SK-MEL-28 = test system: SK-MEL-28
K562 = test system: K562
A498 = test system: A498
SW-620 = test system: SW-620
TK-10 = test system: TK-10
HL-60 = test system: HL-60
SK-MEL-2 = test system: SK-MEL-2
CAKI-1 = test system: CAKI-1
SF-295 = test system: SF-295
MDA-MB-231 = test system: MDA-MB-231
EKVX = test system: EKVX
MDA-MB-435 = test system: MDA-MB-435
786-0 = test system: 786-0
SN12C = test system: SN12C
SNB-19 = test system: SNB-19
NCI-H226 = test system: NCI-H226

Measured: GI50

COC1=C(OC)C(=O)C(Cc2c(-c3ccccc3)nc3sc(Cl)cn23)=C(C)C1=O
inactive: MDA-N 16.3 µM | SF-268 18.8 µM | OVCAR-3 16.3 µM | HCC 2998 24.4 µM | SK-MEL-28 13.8 µM | K562 23.9 µM | A498 20.2 µM | SW-620 23.3 µM | TK-10 20 µM | HL-60 7.91 µM | SK-MEL-2 15.6 µM | CAKI-1 21 µM | SF-295 17 µM | MDA-MB-231 11 µM | EKVX 20.7 µM | MDA-MB-435 16.5 µM | 786-0 19.6 µM | SN12C 16.4 µM | SNB-19 18.2 µM

CCC1(CC)C(=O)OC(=O)C1(CC)CC
inactive: MDA-N > 100 µM | SF-268 > 100 µM | OVCAR-3 > 100 µM | HCC 2998 > 100 µM | SK-MEL-28 > 100 µM | K562 > 100 µM | A498 > 100 µM | SW-620 > 100 µM | TK-10 > 100 µM | HL-60 > 100 µM | SK-MEL-2 > 100 µM | CAKI-1 > 100 µM | SF-295 > 100 µM | MDA-MB-231 > 100 µM | EKVX > 100 µM | MDA-MB-435 > 100 µM | 786-0 > 100 µM | SNB-19 > 100 µM

CC1=NNC(=O)C1C1CC(c2c[nH]c3ccccc23)=NNC1=S (configuration not stated)
inactive: MDA-N > 100 µM | NCI-H226 > 100 µM | SF-268 > 100 µM | OVCAR-3 > 100 µM | SK-MEL-28 > 100 µM | K562 48.5 µM | A498 > 100 µM | SW-620 > 100 µM | TK-10 > 100 µM | HL-60 68.4 µM | SK-MEL-2 > 100 µM | CAKI-1 > 100 µM | SF-295 > 100 µM | MDA-MB-231 > 100 µM | EKVX 28.4 µM | MDA-MB-435 94.4 µM | 786-0 > 100 µM | SN12C > 100 µM | SNB-19 > 100 µM

CC1(C)[C@@H](Cn2cnc3c(N)ncnc32)CC[C@@]1(C)CO
inactive: MDA-N 50 µM | NCI-H226 40.3 µM | SF-268 > 100 µM | OVCAR-3 73.6 µM | HCC 2998 53 µM | SK-MEL-28 > 100 µM | K562 17.3 µM | A498 > 100 µM | SW-620 82.8 µM | TK-10 > 100 µM | HL-60 40.1 µM | CAKI-1 > 100 µM | SF-295 38.8 µM | MDA-MB-231 > 100 µM | EKVX > 100 µM | MDA-MB-435 45.6 µM | 786-0 > 100 µM | SN12C > 100 µM | SNB-19 > 100 µM

Cc1ccc(/C(=C\C(=O)C(=O)NC23CC4CC(CC(C4)C2)C3)Sc2ccccc2)cc1
inactive: MDA-N > 10 µM | NCI-H226 > 10 µM | SF-268 > 10 µM | OVCAR-3 > 10 µM | HCC 2998 > 10 µM | SK-MEL-28 > 10 µM | K562 4.76 µM | A498 > 10 µM | SW-620 > 10 µM | TK-10 > 10 µM | HL-60 5.82 µM | SK-MEL-2 > 10 µM | CAKI-1 > 10 µM | SF-295 > 10 µM | MDA-MB-231 > 10 µM | EKVX > 10 µM | MDA-MB-435 > 10 µM | 786-0 > 10 µM | SN12C > 10 µM

CC(C)Cc1c(C#N)c(C#N)c(N)n1Cc1ccccc1
inactive: MDA-N > 100 µM | NCI-H226 > 100 µM | SF-268 > 100 µM | OVCAR-3 > 100 µM | HCC 2998 > 100 µM | K562 > 100 µM | A498 > 100 µM | SW-620 > 100 µM | TK-10 > 100 µM | HL-60 > 100 µM | SK-MEL-2 > 100 µM | CAKI-1 > 100 µM | SF-295 > 100 µM | MDA-MB-231 > 100 µM | EKVX > 100 µM | MDA-MB-435 > 100 µM | 786-0 > 100 µM | SN12C > 100 µM | SNB-19 > 100 µM

OC(C#CCN1CCCC1)(c1ccccc1)c1ccccc1Cl (configuration not stated)
inactive: MDA-N 23 µM | NCI-H226 80.7 µM | SF-268 44.2 µM | OVCAR-3 82.8 µM | HCC 2998 21.8 µM | SK-MEL-28 17.1 µM | K562 30.8 µM | A498 17.1 µM | SW-620 18.5 µM | TK-10 50.8 µM | HL-60 26.8 µM | SK-MEL-2 26.6 µM | CAKI-1 24.8 µM | SF-295 24.6 µM | MDA-MB-231 47.1 µM | EKVX 48.5 µM | MDA-MB-435 23.2 µM | 786-0 > 10 µM | SN12C 43.9 µM
